# Assays:
# Test in all cases: relative viability (nuclei count vs DMSO), 5 days (fraction); higher = more cells survive
# SK-LU-1 = tested on: SK-LU-1
# Method in brief: (§1)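 Lung cancer cell lines were pin-tool dosed in 1536-well plates on the day after seeding, with either a lone drug or a fixed anchor-drug dose plus five library-drug doses (not always all listed) in √10 steps. Nuclei were counted on 4× images after 5 days. Relative viability is the ratio of treated-well to vehicle-well nuclei counts, with each value a median of duplicate plates.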
# ChaGo-K-1 = tested on: ChaGo-K-1
# Method in brief: as §1
# LU99A = tested on: LU99A
# Method in brief: as §1
# UMC-11 = tested on: UMC-11
# Method in brief: as §1
# NCI-H2405 = tested on: NCI-H2405
# Method in brief: as §1
# LCLC-97TM1 = tested on: LCLC-97TM1
# Method in brief: as §1
# NCI-H2228 = tested on: NCI-H2228
# Method in brief: as §1
# LK-2 = tested on: LK-2
# Method in brief: as §1
# NCI-H522 = tested on: NCI-H522
# Method in brief: as §1
# NCI-H1355 = tested on: NCI-H1355
# Method in brief: as §1
# HCC-827 = tested on: HCC-827
# Method in brief: as §1
# NCI-H1993 = tested on: NCI-H1993
# Method in brief: as §1
# PC-3 [JPC-3] = tested on: PC-3 [JPC-3]
# Method in brief: as §1
# H3255 = tested on: H3255
# Method in brief: as §1
# NCI-H3122 = tested on: NCI-H3122
# Method in brief: as §1
# LXF-289 = tested on: LXF-289
# Method in brief: as §1
# NCI-H441 = tested on: NCI-H441
# Method in brief: as §1
# EKVX = tested on: EKVX
# Method in brief: as §1
# NCI-H2170 = tested on: NCI-H2170
# Method in brief: as §1
# NCI-H1650 = tested on: NCI-H1650
# Method in brief: as §1
# EPLC-272H = tested on: EPLC-272H
# Method in brief: as §1
# HOP-62 = tested on: HOP-62
# Method in brief: as §1
# SW 1573 = tested on: SW 1573
# Method in brief: as §1
compound,measurement,setting,value
CCNC(=O)c1noc(-c2cc(C(C)C)c(O)cc2O)c1-c1ccc(CN2CCOCC2)cc1 [Luminespib] + COc1cccc2cc(-c3nc([C@H]4CC[C@H](C(=O)O)CC4)n4ncnc(N)c34)[nH]c12 [OSI-027] (partner 0.5 µM),relative viability,SK-LU-1; first compound 0.002 µM,0.356
same,relative viability,SK-LU-1; first compound 0.006325 µM,0.201
same,relative viability,SK-LU-1; first compound 0.02 µM,0.136
same,relative viability,SK-LU-1; first compound 0.06325 µM,0.0733
same,relative viability,SK-LU-1; first compound 0.2 µM,0.0594
same,relative viability,ChaGo-K-1; first compound 0.002 µM,0.562
same,relative viability,ChaGo-K-1; first compound 0.006325 µM,0.612
same,relative viability,ChaGo-K-1; first compound 0.02 µM,0.525
same,relative viability,ChaGo-K-1; first compound 0.06325 µM,0.199
same,relative viability,ChaGo-K-1; first compound 0.2 µM,0.161
same,relative viability,LU99A; first compound 0.002 µM,0.274
same,relative viability,LU99A; first compound 0.006325 µM,0.265
same,relative viability,LU99A; first compound 0.02 µM,0.265
same,relative viability,LU99A; first compound 0.06325 µM,0.154
same,relative viability,LU99A; first compound 0.2 µM,0.162
same,relative viability,UMC-11; first compound 0.002 µM,0.538
same,relative viability,UMC-11; first compound 0.006325 µM,0.42
same,relative viability,UMC-11; first compound 0.02 µM,0.303
same,relative viability,UMC-11; first compound 0.06325 µM,0.224
same,relative viability,UMC-11; first compound 0.2 µM,0.207
same,relative viability,NCI-H2405; first compound 0.002 µM,0.648
same,relative viability,NCI-H2405; first compound 0.006325 µM,0.545
same,relative viability,NCI-H2405; first compound 0.02 µM,0.532
same,relative viability,NCI-H2405; first compound 0.06325 µM,0.196
same,relative viability,NCI-H2405; first compound 0.2 µM,0.192
same,relative viability,LCLC-97TM1; first compound 0.002 µM,0.543
same,relative viability,LCLC-97TM1; first compound 0.006325 µM,0.601
same,relative viability,LCLC-97TM1; first compound 0.02 µM,0.304
same,relative viability,LCLC-97TM1; first compound 0.06325 µM,0.492
same,relative viability,LCLC-97TM1; first compound 0.2 µM,0.114
same,relative viability,NCI-H2228; first compound 0.002 µM,0.576
same,relative viability,NCI-H2228; first compound 0.006325 µM,0.459
same,relative viability,NCI-H2228; first compound 0.02 µM,0.116
same,relative viability,NCI-H2228; first compound 0.06325 µM,0.109
same,relative viability,NCI-H2228; first compound 0.2 µM,0.0698
same,relative viability,LK-2; first compound 0.002 µM,0.209
same,relative viability,LK-2; first compound 0.006325 µM,0.191
same,relative viability,LK-2; first compound 0.02 µM,0.149
same,relative viability,LK-2; first compound 0.06325 µM,0.12
same,relative viability,LK-2; first compound 0.2 µM,0.136
same,relative viability,NCI-H522; first compound 0.002 µM,0.687
same,relative viability,NCI-H522; first compound 0.006325 µM,0.732
same,relative viability,NCI-H522; first compound 0.02 µM,0.615
same,relative viability,NCI-H522; first compound 0.06325 µM,0.538
same,relative viability,NCI-H522; first compound 0.2 µM,0.587
same,relative viability,NCI-H1355; first compound 0.002 µM,0.39
same,relative viability,NCI-H1355; first compound 0.006325 µM,0.377
same,relative viability,NCI-H1355; first compound 0.02 µM,0.277
same,relative viability,NCI-H1355; first compound 0.06325 µM,0.163
same,relative viability,NCI-H1355; first compound 0.2 µM,0.148
same,relative viability,HCC-827; first compound 0.002 µM,0.795
same,relative viability,HCC-827; first compound 0.006325 µM,0.725
same,relative viability,HCC-827; first compound 0.02 µM,0.543
same,relative viability,HCC-827; first compound 0.06325 µM,0.354
same,relative viability,HCC-827; first compound 0.2 µM,0.126
same,relative viability,NCI-H1993; first compound 0.002 µM,0.598
same,relative viability,NCI-H1993; first compound 0.006325 µM,0.545
same,relative viability,NCI-H1993; first compound 0.02 µM,0.562
same,relative viability,NCI-H1993; first compound 0.06325 µM,0.457
same,relative viability,NCI-H1993; first compound 0.2 µM,0.389
same,relative viability,PC-3 [JPC-3]; first compound 0.002 µM,0.813
same,relative viability,PC-3 [JPC-3]; first compound 0.006325 µM,0.718
same,relative viability,PC-3 [JPC-3]; first compound 0.02 µM,0.583
same,relative viability,PC-3 [JPC-3]; first compound 0.06325 µM,0.58
same,relative viability,PC-3 [JPC-3]; first compound 0.2 µM,0.225
same,relative viability,H3255; first compound 0.002 µM,0.596
same,relative viability,H3255; first compound 0.006325 µM,0.628
same,relative viability,H3255; first compound 0.06325 µM,0.577
same,relative viability,H3255; first compound 0.2 µM,0.249
same,relative viability,NCI-H3122; first compound 0.002 µM,1.01
same,relative viability,NCI-H3122; first compound 0.006325 µM,0.787
same,relative viability,NCI-H3122; first compound 0.02 µM,0.142
same,relative viability,NCI-H3122; first compound 0.06325 µM,0.114
same,relative viability,NCI-H3122; first compound 0.2 µM,0.105
same,relative viability,LXF-289; first compound 0.002 µM,0.751
same,relative viability,LXF-289; first compound 0.006325 µM,0.762
same,relative viability,LXF-289; first compound 0.02 µM,0.759
same,relative viability,LXF-289; first compound 0.06325 µM,0.163
same,relative viability,LXF-289; first compound 0.2 µM,0.0755
same,relative viability,NCI-H441; first compound 0.002 µM,0.655
same,relative viability,NCI-H441; first compound 0.006325 µM,0.588
same,relative viability,NCI-H441; first compound 0.02 µM,0.286
same,relative viability,NCI-H441; first compound 0.06325 µM,0.142
same,relative viability,NCI-H441; first compound 0.2 µM,0.16
same,relative viability,EKVX; first compound 0.002 µM,0.631
same,relative viability,EKVX; first compound 0.006325 µM,0.684
same,relative viability,EKVX; first compound 0.06325 µM,0.658
same,relative viability,EKVX; first compound 0.2 µM,0.143
same,relative viability,NCI-H2170; first compound 0.002 µM,0.739
same,relative viability,NCI-H2170; first compound 0.006325 µM,0.698
same,relative viability,NCI-H2170; first compound 0.02 µM,0.488
same,relative viability,NCI-H2170; first compound 0.06325 µM,0.23
same,relative viability,NCI-H2170; first compound 0.2 µM,0.173
same,relative viability,NCI-H1650; first compound 0.002 µM,0.717
same,relative viability,NCI-H1650; first compound 0.006325 µM,0.44
same,relative viability,NCI-H1650; first compound 0.02 µM,0.163
same,relative viability,NCI-H1650; first compound 0.06325 µM,0.0992
same,relative viability,NCI-H1650; first compound 0.2 µM,0.148
same,relative viability,EPLC-272H; first compound 0.002 µM,0.261
same,relative viability,EPLC-272H; first compound 0.006325 µM,0.26
same,relative viability,EPLC-272H; first compound 0.06325 µM,0.27
same,relative viability,EPLC-272H; first compound 0.2 µM,0.122
same,relative viability,HOP-62; first compound 0.002 µM,0.83
same,relative viability,HOP-62; first compound 0.006325 µM,0.758
same,relative viability,HOP-62; first compound 0.02 µM,0.648
same,relative viability,HOP-62; first compound 0.06325 µM,0.428
same,relative viability,HOP-62; first compound 0.2 µM,0.111
same,relative viability,SW 1573; first compound 0.002 µM,0.633
same,relative viability,SW 1573; first compound 0.006325 µM,0.549
same,relative viability,SW 1573; first compound 0.02 µM,0.199
same,relative viability,SW 1573; first compound 0.06325 µM,0.0962
same,relative viability,SW 1573; first compound 0.2 µM,0.09

# Reference: the supplement of paper PMC10307832
